ChEMBL document CHEMBL5154919, “New ZW4864 Derivatives as Small-Molecule Inhibitors for the β-Catenin/BCL9 Protein-Protein Interaction” (ACS Med Chem Lett, 2022)
Calls of active or inactive are those of the source. The rule behind the calls is not given here.

Assays:
[1] = Effect of Wnt/beta-Catenin signaling pathway in human SW480 cells assessed as reduction in Axin2 level at 20 uM incubated for 24 hrs by qRT-PCR analysis relative to control; format: functional; conditions: SW480, 24 h
[2] = Inhibition of Wnt/beta-catenin transactivation signalling in human SW480 cells by TOPFlash reporter gene assay; format: cell-based
[3] = molecular target: beta-catenin-B-cell lymphoma 9 protein complex (Homo sapiens) (UniProt P35222+O00512); test: Disruption of beta-catenin/N-terminal biotinylated human BCL9 HD2 (350 to 375 residues) protein-protein interaction in human SW480 cells incubated for 1 hr followed by N-terminal biotinylated human BCL9 HD2 addition and measured after 2 hrs by immunoblot based pull-down assay; format: cell-based; conditions: time 3.0 hrs, DDE = dose-dependent effect
[4] = system: SW480; test: Antiproliferative activity against human SW480 cells assessed as inhibition of cell growth measured by MTS method; format: functional, cell-based
[5] = system: MDA-MB-468; test: Effect of Wnt/beta-Catenin signaling in human MDA-MB-468 cells transfected with beta-catenin plasmid assessed as inhibition of cell growth rescue measured after 72 hrs by MTS assay; format: functional, cell-based
[6] = Effect of Wnt/beta-Catenin signaling pathway in human SW480 cells assessed as reduction in HPRT level at 5 uM incubated for 24 hrs by qRT-PCR analysis relative to control; format: functional; conditions: SW480, 24 h
[7] = system: MDA-MB-231; test: Antiproliferative activity against human MDA-MB-231 cells assessed as inhibition of cell growth measured by MTS method; format: functional, cell-based
[8] = system: MCF-10A; test: Antiproliferative activity against human MCF-10A cells assessed as inhibition of cell growth measured by MTS method; format: functional, cell-based
[9] = molecular target: T1, CYP1A2 (Homo sapiens, UniProt P05177); test: Inhibition of CYP1A2 in human liver microsomes using phenacetin at 10 uM in presence of NADPH incubated for 10 mins; format: ADME, Microsome; conditions: probe phenacetin
T1 sequence (P05177 whole entry): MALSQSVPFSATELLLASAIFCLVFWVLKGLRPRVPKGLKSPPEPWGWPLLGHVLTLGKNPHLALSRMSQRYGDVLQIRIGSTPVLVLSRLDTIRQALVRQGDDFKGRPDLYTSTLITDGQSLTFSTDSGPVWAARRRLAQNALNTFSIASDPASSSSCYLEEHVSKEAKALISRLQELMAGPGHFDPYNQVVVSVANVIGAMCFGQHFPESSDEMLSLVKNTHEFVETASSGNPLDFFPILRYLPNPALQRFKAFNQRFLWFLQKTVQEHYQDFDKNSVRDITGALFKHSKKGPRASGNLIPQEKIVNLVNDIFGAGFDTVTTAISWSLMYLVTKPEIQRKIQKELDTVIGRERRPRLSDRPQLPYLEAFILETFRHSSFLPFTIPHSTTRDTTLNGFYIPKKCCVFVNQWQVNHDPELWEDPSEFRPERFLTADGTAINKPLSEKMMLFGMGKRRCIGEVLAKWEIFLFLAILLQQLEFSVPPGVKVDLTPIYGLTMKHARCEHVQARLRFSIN

[10] = Metabolic stability in human Hepatocyte assessed as half life; format: ADME, cell-based; conditions: hepatocytes
[11] = Effect of Wnt/beta-Catenin signaling pathway in human SW480 cells assessed as reduction in BCL9L level at 20 uM incubated for 24 hrs by qRT-PCR analysis relative to control; format: functional; conditions: SW480, 24 h
[12] = Effect of Wnt/beta-Catenin signaling pathway in human SW480 cells assessed as reduction in BCL9L level at 10 uM incubated for 24 hrs by qRT-PCR analysis relative to control; format: functional; conditions: SW480, 24 h
[13] = Effect of Wnt/beta-Catenin signaling pathway in human SW480 cells assessed as reduction in Cyclin D1 level at 5 uM incubated for 24 hrs by qRT-PCR analysis relative to control; format: functional; conditions: SW480, 24 h
[14] = Metabolic stability in mouse Hepatocyte assessed as half life; format: ADME, cell-based; conditions: hepatocytes
[15] = Effect of Wnt/beta-Catenin signaling pathway in human SW480 cells assessed as reduction in Cyclin D1 level at 10 uM incubated for 24 hrs by qRT-PCR analysis relative to control; format: functional; conditions: SW480, 24 h
[16] = molecular target: CYP3A4 (Homo sapiens, UniProt P08684); test: Inhibition of CYP3A4 in human liver microsomes using Midazolam as substrate at 10 uM in presence of NADPH incubated for 10 mins; format: ADME, Microsome; conditions: probe midazolam
CYP3A4, sequence (P08684 whole entry): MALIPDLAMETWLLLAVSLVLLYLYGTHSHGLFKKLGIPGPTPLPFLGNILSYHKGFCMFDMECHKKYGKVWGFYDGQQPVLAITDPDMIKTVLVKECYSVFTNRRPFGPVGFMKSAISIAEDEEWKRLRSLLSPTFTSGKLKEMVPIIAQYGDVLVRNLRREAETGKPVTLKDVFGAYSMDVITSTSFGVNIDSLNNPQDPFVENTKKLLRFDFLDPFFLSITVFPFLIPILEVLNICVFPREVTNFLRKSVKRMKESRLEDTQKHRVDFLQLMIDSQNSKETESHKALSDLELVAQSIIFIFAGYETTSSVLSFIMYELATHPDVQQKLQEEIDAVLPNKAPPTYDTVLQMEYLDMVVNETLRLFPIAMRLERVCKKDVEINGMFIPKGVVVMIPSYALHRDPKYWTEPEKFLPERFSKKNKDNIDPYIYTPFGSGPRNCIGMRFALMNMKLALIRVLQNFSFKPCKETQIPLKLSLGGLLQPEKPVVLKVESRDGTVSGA

[17] = system: SW480; test: Effect of Wnt/beta-Catenin signaling pathway in human SW480 cells assessed as decrease in Cyclin D1 level at 20 uM incubated for 24 hrs by Western blot analysis; format: functional, cell-based; conditions: DDE = dose-dependent effect
[18] = molecular target: CYP2C9 (Homo sapiens, UniProt P11712); test: Inhibition of CYP2C9 in human liver microsomes using tolbutamide as substrate at 10 uM in presence of NADPH incubated for 10 mins; format: ADME, Microsome; conditions: probe tolbutamide
CYP2C9, sequence (P11712 whole entry): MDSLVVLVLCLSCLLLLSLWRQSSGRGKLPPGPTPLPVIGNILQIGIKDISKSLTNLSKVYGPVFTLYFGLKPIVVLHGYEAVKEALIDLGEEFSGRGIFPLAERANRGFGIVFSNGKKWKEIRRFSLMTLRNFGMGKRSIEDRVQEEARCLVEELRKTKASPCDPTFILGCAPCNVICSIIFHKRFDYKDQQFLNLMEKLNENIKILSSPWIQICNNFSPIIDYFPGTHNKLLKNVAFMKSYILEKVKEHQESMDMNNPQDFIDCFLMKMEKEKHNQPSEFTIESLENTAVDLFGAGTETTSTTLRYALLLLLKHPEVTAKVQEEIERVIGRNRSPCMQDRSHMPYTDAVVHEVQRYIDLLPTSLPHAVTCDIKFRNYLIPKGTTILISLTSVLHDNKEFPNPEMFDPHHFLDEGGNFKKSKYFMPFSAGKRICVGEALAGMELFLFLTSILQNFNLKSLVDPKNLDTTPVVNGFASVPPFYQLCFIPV

[19] = Effect of Wnt/beta-Catenin signaling pathway in human SW480 cells assessed as reduction in HPRT level at 20 uM incubated for 24 hrs by qRT-PCR analysis relative to control; format: functional; conditions: SW480, 24 h
[20] = system: SW480; test: Effect of Wnt/beta-Catenin signaling pathway in human SW480 cells assessed as decrease in Axin2 level at 20 uM incubated for 24 hrs by Western blot analysis; format: functional, cell-based; conditions: DDE = dose-dependent effect
[21] = system: HCT-116; test: Antiproliferative activity against human HCT-116 cells assessed as inhibition of cell growth measured by MTS method; format: functional, cell-based
[22] = system: MDA-MB-468; test: Antiproliferative activity against human MDA-MB-468 cells assessed as inhibition of cell growth measured by MTS method; format: functional, cell-based
[23] = system: SW480; test: Inhibition of Wnt/beta-catenin transactivation signalling in human SW480 cells transfected with beta-catenin plasmid at 10 uM by TOPFlash luciferase assay; format: cell-based
[24] = molecular target: CYP2D6 (Homo sapiens, UniProt P10635); test: Inhibition of CYP2D6 in human liver microsomes using bufuralol as substrate at 10 uM in presence of NADPH incubated for 10 mins; format: ADME, Microsome; conditions: probe bufuralol
CYP2D6, sequence (P10635 whole entry): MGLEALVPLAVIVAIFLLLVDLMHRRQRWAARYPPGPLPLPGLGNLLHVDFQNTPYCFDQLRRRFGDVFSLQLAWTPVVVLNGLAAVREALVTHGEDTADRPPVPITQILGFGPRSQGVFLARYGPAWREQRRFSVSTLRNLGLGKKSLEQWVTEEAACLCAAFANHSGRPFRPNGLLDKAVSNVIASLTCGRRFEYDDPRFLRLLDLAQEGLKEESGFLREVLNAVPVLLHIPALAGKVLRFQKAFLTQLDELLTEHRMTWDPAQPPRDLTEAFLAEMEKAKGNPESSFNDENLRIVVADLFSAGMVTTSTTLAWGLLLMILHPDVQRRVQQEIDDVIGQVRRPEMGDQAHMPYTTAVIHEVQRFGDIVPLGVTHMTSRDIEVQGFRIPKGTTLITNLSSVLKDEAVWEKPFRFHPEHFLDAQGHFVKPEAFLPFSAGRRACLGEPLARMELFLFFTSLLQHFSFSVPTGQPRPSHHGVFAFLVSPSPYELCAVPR

[25] = Effect of Wnt/beta-Catenin signaling pathway in human SW480 cells assessed as reduction in Axin2 level at 10 uM incubated for 24 hrs by qRT-PCR analysis relative to control; format: functional; conditions: SW480, 24 h
[26] = Effect of Wnt/beta-Catenin signaling pathway in human SW480 cells assessed as reduction in Cyclin D1 level at 20 uM incubated for 24 hrs by qRT-PCR analysis relative to control; format: functional; conditions: SW480, 24 h
[27] = Effect of Wnt/beta-Catenin signaling pathway in human SW480 cells assessed as reduction in BCL9L level at 5 uM incubated for 24 hrs by qRT-PCR analysis relative to control; format: functional; conditions: SW480, 24 h
[28] = Effect of Wnt/beta-Catenin signaling pathway in human SW480 cells assessed as reduction in Axin2 level at 5 uM incubated for 24 hrs by qRT-PCR analysis relative to control; format: functional; conditions: SW480, 24 h
[29] = Effect of Wnt/beta-Catenin signaling pathway in human SW480 cells assessed as HPRT level at 10 uM incubated for 24 hrs by qRT-PCR analysis relative to control; conditions: SW480, 24 h

CC(C)(Oc1cccc(N2CCC[C@@H](C(=O)N(Cc3ccc(-c4cnc5[nH]ccc5c4)cc3)C3CC3)C2)c1)C(=O)N1CCNCC1.Cl
level, % of control at 20 µM [1]: 19% | IC50 [2]: 7 µM | inhibition [3]: Dde | IC50 [4]: 14 µM | inhibition [5]: Active | level, % of control at 5 µM [6]: 99% | IC50 [7]: 6.3 µM | IC50 [8]: 36 µM | inhibition at 10 min, 10 µM [9]: 31% | half-life [10]: 25.2 min | level, % of control at 20 µM [11]: 32% | level, % of control at 10 µM [12]: 52% | level, % of control at 5 µM [13]: 89% | half-life [14]: 11.6 min | level, % of control at 10 µM [15]: 54% | inhibition at 10 min, 10 µM [16]: 97% | inhibition [17]: Dde | inhibition at 10 min, 10 µM [18]: 91% | level, % of control at 20 µM [19]: 99% | inhibition [20]: Dde | IC50 [21]: 9.5 µM | IC50 [22]: 5 µM | inhibition [23]: Active | inhibition at 10 min, 10 µM [24]: 54% | level, % of control at 10 µM [25]: 56% | level, % of control at 20 µM [26]: 29% | level, % of control at 5 µM [27]: 77% | level, % of control at 5 µM [28]: 72% | level, % of control at 10 µM [29]: 100%
